We go through 9 compounds from ChEMBL document CHEMBL1131821, “SAR in the alkoxy lactone series: the discovery of DFP, a potent and orally active COX-2 inhibitor” (Bioorg Med Chem Lett, 1999).

The target of series [1] is T1, Prostaglandin G/H synthase 1 (Homo sapiens, UniProt P23219). It counts as tissue-based, Blood.
Description: Inhibitory activity against Prostaglandin G/H synthase 1 in human whole blood
Series [2] is described as follows: Half life by ''Cr'' assay in dog at a dose of 5 mg/kg. It counts as ADME, organism-based, Canis lupus familiaris. To be noted: in vivo. Further details: dose 5 mg/kg.
Series [3] can be described thus: Half life the of compound was determined by ''Cr'' assay in squirrel monkey at a dose of 5 mg/kg. It counts as ADME, organism-based. To be noted: in vivo. Further details: dose 5 mg/kg.
Series [4] is described as follows: Maximal concentration (Cmax) in rhesus monkey plasma at a dose of 5 mg/kg. Further details: dose 5 mg/kg. To be noted: cercopithecidae. It counts as ADME, organism-based.
Series [5] can be described thus: Maximal concentration (Cmax) in squirrel monkey plasma at a dose of 5 mg/kg. The arrangement: dose 5 mg/kg. It counts as ADME, organism-based.
The nature of series [6]: Maximal concentration (Cmax) in dog plasma at a dose of […] mg/kg. To be noted: 5 mg/kg. It counts as ADME, organism-based, Canis lupus familiaris.
Series [7] is described as follows: Maximal concentration (Cmax) in the rat plasma at a dose of 10 mg/kg. It counts as ADME, organism-based. Further details: dose 10 mg/kg.
A short description of series [8]: Half life the of compound was determined by ''Cr'' assay in rat at a dose of 10 mg/kg. It counts as ADME, organism-based. Further details: dose 10 mg/kg. The following applies: in vivo.
Series [9] addresses T1, Prostaglandin G/H synthase 1. Nature of the series: Inhibitory activity against Human Prostaglandin G/H synthase 1 in U937 Microsome COX-1 assay at a concentration of 30 uM.
The subject of series [10] is Rattus norvegicus. Put plainly: In vivo effective concentration of compound in rat adjuvant arthritis. It counts as functional.
The subject of series [11] is Rattus norvegicus. Nature of the series: In vivo effective concentration of compound in rat paw edema. It counts as functional.
Series [12] concerns Rattus norvegicus. Nature of the series: In vivo effective concentration of compound in rat pyresis. It counts as functional.
Series [13] in a line: Half life by ''Cr'' assay in rhesus monkey at a dose of 5 mg/kg. It counts as ADME, organism-based. To be noted: cercopithecidae, in vivo. The arrangement: dose 5 mg/kg.
Series [14] deals with Rattus norvegicus. Put plainly: In vivo effective concentration of compound in rat hyperalgesia. It counts as functional.
Series [15] addresses T1, Prostaglandin G/H synthase 1. Nature of the series: In vitro inhibitory activity against Prostaglandin G/H synthase 1 in human whole blood assay.
Series [16] shares this target. Nature of the series: Inhibitory activity against Human Cyclooxygenase-1 ( COX-1 ) in U937 Microsome COX-1 assay.
Series [17] has the same target. Put plainly: Inhibitory activity against Human Prostaglandin G/H synthase 1 in U937 Microsome COX-1 assay.

T1 sequence (P23219 whole entry): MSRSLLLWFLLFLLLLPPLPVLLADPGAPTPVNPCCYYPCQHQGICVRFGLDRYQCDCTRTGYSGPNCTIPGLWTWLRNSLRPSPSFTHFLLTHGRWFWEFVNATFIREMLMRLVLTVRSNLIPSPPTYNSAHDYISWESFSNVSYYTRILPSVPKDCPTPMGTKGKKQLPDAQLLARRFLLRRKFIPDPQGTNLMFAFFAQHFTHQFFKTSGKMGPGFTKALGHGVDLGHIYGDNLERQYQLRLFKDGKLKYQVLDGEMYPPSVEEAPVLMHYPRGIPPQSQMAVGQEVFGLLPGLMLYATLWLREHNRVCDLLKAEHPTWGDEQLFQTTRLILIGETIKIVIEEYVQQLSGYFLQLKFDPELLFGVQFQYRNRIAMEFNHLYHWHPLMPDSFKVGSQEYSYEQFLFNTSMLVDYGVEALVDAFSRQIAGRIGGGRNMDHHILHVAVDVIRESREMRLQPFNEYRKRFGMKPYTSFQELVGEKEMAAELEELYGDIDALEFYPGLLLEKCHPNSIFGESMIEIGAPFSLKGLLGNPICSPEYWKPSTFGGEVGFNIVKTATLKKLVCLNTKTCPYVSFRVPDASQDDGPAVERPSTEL

With `CC1(C)OC(=O)C(OC2CCCC2)=C1c1ccc(S(C)(=O)=O)cc1`, the IC50 (usually the concentration that inhibits the measured activity by half) in [1] was above 100 µM.

Consider `CCC(CC)OC1=C(c2ccc(S(C)(=O)=O)cc2)C(C)(C)OC1=O`, for which, in series [1], the IC50 came out at 39 µM.

Regarding `CC(C)OC1=C(c2ccc(S(C)(=O)=O)cc2)C(C)(C)OC1=O`, the half-life – broadly, how long it takes for the measured level to halve – in series [2] is 4.8 h; in [3] it was 1.4 h; in series [8], 7.1 h; in [13] it was 2 h. In addition, the peak concentration (Cmax) (as a rule, the peak of the concentration-time curve) in [4] came out at 3 µM; in [5], 5.5 µM; in [6], 12 µM; in [7], 15 µM. For the same compound, the inhibition (commonly the change of the read-out against control, counted positive when it falls) in [9] was 32%. Further, the ED50 (in general, the midpoint of the dose-response relation) in the series on Rattus norvegicus [10] is 0.15 mg/kg; in the series on Rattus norvegicus [11] it was 0.8 mg/kg; in the series on Rattus norvegicus [12], 0.3 mg/kg; in the series with Rattus norvegicus [14], 0.8 mg/kg. Besides, the IC50 in series [1] was above 100 µM.

For `CC1(C)OC(=O)C(OC2CCCCC2)=C1c1ccc(S(C)(=O)=O)cc1`, the IC50 in series [15] was above 58 µM.

As to `COc1ccc2c(c1)c(CC(=O)O)c(C)n2C(=O)c1ccc(Cl)cc1` [INDOMETHACIN], the ED50 amounted to 0.2 mg/kg in the series with Rattus norvegicus [10], 2 mg/kg in the series on Rattus norvegicus [11], 1.1 mg/kg with Rattus norvegicus [12] and 1.5 mg/kg with Rattus norvegicus [14].

Regarding `CC(OC1=C(c2ccc(S(C)(=O)=O)cc2)C(C)(C)OC1=O)C1CC1` (configuration not stated), the IC50 in series [16] came to 6.5 µM; in [1] it was 36 µM.

On to `CC1(C)OC(=O)C(OCC2CC2)=C1c1ccc(S(C)(=O)=O)cc1` [FIROCOXIB], for which the results for the IC50 in series [17] and in series [1] were 25 µM and above 100 µM, respectively.

In [1], `CCC(C)OC1=C(c2ccc(S(C)(=O)=O)cc2)C(C)(C)OC1=O` (configuration not stated) yielded an IC50 of 10 µM.

In series [1], `CC1(C)OC(=O)C(OC2CCC2)=C1c1ccc(S(C)(=O)=O)cc1` registered an IC50 of 30 µM.
